Test results published in article PMC10287555, “Camonsertib in DNA damage response-deficient advanced solid tumors: phase 1 trial results” (Nature Medicine, 2023).
Like-named read-outs stand apart in the source and are kept apart here.

Assay: Plasma pharmacokinetics, cycle 1 day 1 (LC–MS/MS, non-compartmental analysis)
Format: in vivo, human
Conditions: for AUC0-t/dose, geometric mean / Cmax/dose, geometric mean / AUC(0-t) / Cmax / Tmax: cycle 1 day 1; for AUC(0-t) / Cmax / Tmax: human, plasma, oral; for Cmax: read-out: Cmax, geometric mean; for Tmax: read-out: Tmax, median
Protocol: The plasma levels from cycle 1, day 1 of camonsertib were quantified using a validated liquid chromatography tandem–mass spectrometry (LC–MS/MS) method. […] All PK parameters were calculated using actual sampling times. Mean plasma concentration time profiles at given dose levels and regimens were plotted on semi-logarithmic plots using nominal times.

C[C@@H]1COCCN1c1cc([C@]2(O)C[C@H]3CC[C@@H](C2)O3)c2cnn(-c3cc[nH]n3)c2n1 [camonsertib]
AUC0-t/dose, geometric mean (Dose 5 mg, Tau 24 hr): 0.427 µg·h/mL/mg | Cmax/dose, geometric mean (Dose 5 mg, Tau 24 hr): 0.098 µg/mL/mg | AUC0-t/dose, geometric mean (Dose 10 mg, Tau 24 hr): 0.567 µg·h/mL/mg | Cmax/dose, geometric mean (Dose 10 mg, Tau 24 hr): 0.105 µg/mL/mg | AUC0-t/dose, geometric mean (Dose 20 mg, Tau 24 hr): 0.239 µg·h/mL/mg | Cmax/dose, geometric mean (Dose 20 mg, Tau 24 hr): 0.04 µg/mL/mg | AUC0-t/dose, geometric mean (Dose 40 mg, Tau 12 hr): 1.003 µg·h/mL/mg | Cmax/dose, geometric mean (Dose 40 mg, Tau 12 hr): 0.095 µg/mL/mg | AUC0-t/dose, geometric mean (Dose 40 mg, Tau 24 hr): 0.329 µg·h/mL/mg | Cmax/dose, geometric mean (Dose 40 mg, Tau 24 hr): 0.029 µg/mL/mg | AUC0-t/dose, geometric mean (Dose 60 mg, Tau 12 hr): 0.444 µg·h/mL/mg | Cmax/dose, geometric mean (Dose 60 mg, Tau 12 hr): 0.055 µg/mL/mg | AUC0-t/dose, geometric mean (Dose 80 mg, Tau 12 hr): 0.527 µg·h/mL/mg | Cmax/dose, geometric mean (Dose 80 mg, Tau 12 hr): 0.038 µg/mL/mg | AUC0-t/dose, geometric mean (Dose 80 mg, Tau 24 hr): 0.254 µg·h/mL/mg | Cmax/dose, geometric mean (Dose 80 mg, Tau 24 hr): 0.071 µg/mL/mg | AUC0-t/dose, geometric mean (Dose 100 mg, Tau 24 hr): 0.3 µg·h/mL/mg | Cmax/dose, geometric mean (Dose 100 mg, Tau 24 hr): 0.052 µg/mL/mg | AUC0-t/dose, geometric mean (Dose 120 mg, Tau 24 hr): 0.246 µg·h/mL/mg | Cmax/dose, geometric mean (Dose 120 mg, Tau 24 hr): 0.044 µg/mL/mg | AUC0-t/dose, geometric mean (Dose 160 mg, Tau 24 hr): 0.256 µg·h/mL/mg | Cmax/dose, geometric mean (Dose 160 mg, Tau 24 hr): 0.046 µg/mL/mg | AUC0-t/dose, geometric mean (Dose 200 mg, Tau 24 hr): 0.273 µg·h/mL/mg | Cmax/dose, geometric mean (Dose 200 mg, Tau 24 hr): 0.047 µg/mL/mg | Accumulation (after repeated dosing): no accumulation | Increases in Cmax and AUC with dose (dose range 5–200 mg QD): linear | AUC(0-t) (5 mg, Tau 24 hr, read-out: AUC0-12, geometric mean): 1800 ng·h/mL | AUC(0-t) (5 mg, Tau 24 hr, read-out: AUC0-t, geometric mean): 2100 ng·h/mL | Cmax (5 mg, Tau 24 hr): 500 ng/mL | Tmax (5 mg, Tau 24 hr): 1.17 h | AUC(0-t) (10 mg, Tau 24 hr, read-out: AUC0-12, geometric mean): 4400 ng·h/mL | AUC(0-t) (10 mg, Tau 24 hr, read-out: AUC0-t, geometric mean): 5700 ng·h/mL | Cmax (10 mg, Tau 24 hr): 1100 ng/mL | Tmax (10 mg, Tau 24 hr): 1 h | AUC(0-t) (20 mg, Tau 24 hr, read-out: AUC0-12, geometric mean): 2800 ng·h/mL | AUC(0-t) (20 mg, Tau 24 hr, read-out: AUC0-t, geometric mean): 4800 ng·h/mL | Cmax (20 mg, Tau 24 hr): 800 ng/mL | Tmax (20 mg, Tau 24 hr): 10.7 h | AUC(0-t) (40 mg, Tau 12 hr, read-out: AUC0-12, geometric mean): 23400 ng·h/mL | AUC(0-t) (40 mg, Tau 12 hr, read-out: AUC0-t, geometric mean): 40100 ng·h/mL | Cmax (40 mg, Tau 12 hr): 3800 ng/mL | Tmax (40 mg, Tau 12 hr): 1.96 h | AUC(0-t) (40 mg, Tau 24 hr, read-out: AUC0-12, geometric mean): 4700 ng·h/mL | AUC(0-t) (40 mg, Tau 24 hr, read-out: AUC0-t, geometric mean): 13200 ng·h/mL | Cmax (40 mg, Tau 24 hr): 1200 ng/mL | Tmax (40 mg, Tau 24 hr): 22.1 h | AUC(0-t) (60 mg, Tau 12 hr, read-out: AUC0-12, geometric mean): 16900 ng·h/mL | AUC(0-t) (60 mg, Tau 12 hr, read-out: AUC0-t, geometric mean): 26600 ng·h/mL
